By IC50 is commonly meant the concentration at which inhibition is half-maximal.

One experiment concerns the target C-Raf (Homo sapiens (Human), UniProt P04049, Y340D/Y341D). Description: Inhibitory activity against C-Raf kinase (Invitrogen Kinase Profiling Service). The format is biochemical. The protocol: (§1) The compounds prepared in Examples were tested for inhibitory activities against three subtypes of RAF, i.e. RAF1 Y340D Y341D, BRAF normal type and BRAF V600E, using Kinase Profiling Service (Invitrogen) according to the manufacturer's instructions. The levels of the inhibitory activities of the compounds against the enzymes were calculated as % inhibitory activities at various concentrations. Based on the % inhibitory activities, dose-response curves were plotted and IC50 values were calculated using GraphPad Prism software.

In another experiment the target is CDK1 (Homo sapiens (Human), UniProt P06493). Nature of the experiment: Kinase profiling, % inhibition at 1.0 μM. As to conditions: compound 1.0 μM; read-out: Inhibitory activity at 1.0 μM (%), CDK1. The format is biochemical.
In a further experiment the target is CDK2 (Homo sapiens (Human), UniProt P24941). Nature of the experiment: Kinase profiling, % inhibition at 1.0 μM. It is filed as biochemical. As to conditions: compound 1.0 μM; read-out: Inhibitory activity at 1.0 μM (%), CDK2.
For another experiment, the target named is PLK1 (Homo sapiens (Human), UniProt P53350). Description: Kinase profiling, % inhibition at 1.0 μM. The format is biochemical. As to conditions: compound 1.0 μM; read-out: Inhibitory activity at 1.0 μM (%), PLK1.
Another experiment deals with Aurora B (Homo sapiens (Human), UniProt Q96GD4). Description: Kinase profiling, % inhibition at 1.0 μM. The format is biochemical. As to conditions: compound 1.0 μM; read-out: Inhibitory activity at 1.0 μM (%), Aurora B. As for the experimental part:
[The source words this procedure for another target and says it was used here with some conditions changed.] as §1

The next experiment concerns the target FGFR4 (Homo sapiens (Human), UniProt P22455). Nature of the experiment: Kinase profiling, % inhibition at 1.0 μM. As to conditions: compound 1.0 μM; read-out: Inhibitory activity at 1.0 μM (%), FGFR4. It is filed as biochemical. As for the experimental part: [The source words this procedure for another target and says it was used here with some conditions changed.] as §1

In a further experiment the target is PLK2 (Homo sapiens (Human), UniProt Q9NYY3). Description: Kinase profiling, % inhibition at 1.0 μM. As to conditions: compound 1.0 μM; read-out: Inhibitory activity at 1.0 μM (%), PLK2. The format is biochemical. The protocol: [The source words this procedure for another target and says it was used here with some conditions changed.] as §1
Another experiment addresses PLK3 (Homo sapiens (Human), UniProt Q9H4B4). Description: Kinase profiling, % inhibition at 1.0 μM. The format is biochemical. As to conditions: compound 1.0 μM; read-out: Inhibitory activity at 1.0 μM (%), PLK3. As for the experimental part: [The source words this procedure for another target and says it was used here with some conditions changed.] as §1
A further experiment has as its target Tie-2 (Homo sapiens (Human), UniProt Q02763). Nature of the experiment: Kinase profiling, % inhibition at 1.0 μM. The format is biochemical. As to conditions: compound 1.0 μM; read-out: Inhibitory activity at 1.0 μM (%), Tie-2. As for the experimental part:
[The source words this procedure for another target and says it was used here with some conditions changed.] as §1

A further experiment has as its target VEGFR1 (Homo sapiens (Human), UniProt P17948). Nature of the experiment: Kinase profiling, % inhibition at 1.0 μM. It is filed as biochemical. As to conditions: compound 1.0 μM; read-out: Inhibitory activity at 1.0 μM (%), VEGFR1. As for the experimental part:
[The source words this procedure for another target and says it was used here with some conditions changed.] as §1

The next experiment concerns the target c-Kit (Homo sapiens (Human), UniProt P10721). Nature of the experiment: Kinase profiling, % inhibition at 1.0 μM. As to conditions: compound 1.0 μM; read-out: Inhibitory activity at 1.0 μM (%), c-Kit. The format is biochemical. As for the experimental part: [The source words this procedure for another target and says it was used here with some conditions changed.] as §1

A further experiment concerns the target Aurora A (Homo sapiens (Human), UniProt O14965). Nature of the experiment: Kinase profiling, % inhibition at 1.0 μM. The format is biochemical. As to conditions: compound 1.0 μM; read-out: Inhibitory activity at 1.0 μM (%), Aurora A.
The target of another experiment is Abl (Homo sapiens (Human), UniProt P00519). Nature of the experiment: Kinase profiling, IC50. It is filed as biochemical. As to conditions: read-out: Inhibitory activity (IC50, nM), Abl. The protocol:
[The source words this procedure for another target and reports this target under the same test.] as §1

A further experiment has as its target B-Raf (V600E) (Homo sapiens (Human), UniProt P15056, V600E). Nature of the experiment: Kinase profiling, IC50. As to conditions: read-out: Inhibitory activity (IC50, nM), B-Raf (V600E). It is filed as biochemical. The protocol: as §1
A further experiment concerns the target B-Raf (WT) (Homo sapiens (Human), UniProt P15056). Description: Kinase profiling, IC50. It is filed as biochemical. As to conditions: read-out: Inhibitory activity (IC50, nM), B-Raf (WT). As for the experimental part:
as §1

Another experiment deals with EGFR (Homo sapiens (Human), UniProt P00533). Nature of the experiment: Kinase profiling, IC50. As to conditions: read-out: Inhibitory activity (IC50, nM), EGFR. It is filed as biochemical. The protocol:
[The source words this procedure for another target and reports this target under the same test.] as §1

Another experiment addresses FGFR-1 (Homo sapiens (Human), UniProt P11362). Description: Kinase profiling, IC50. It is filed as biochemical. As to conditions: read-out: Inhibitory activity (IC50, nM), FGFR-1. The protocol:
[The source words this procedure for another target and reports this target under the same test.] as §1

The next experiment addresses FGFR-2 (Homo sapiens (Human), UniProt P21802). Description: Kinase profiling, IC50. As to conditions: read-out: Inhibitory activity (IC50, nM), FGFR-2. It is filed as biochemical. The protocol: [The source words this procedure for another target and reports this target under the same test.] as §1
A further experiment addresses FLT-3 (Homo sapiens (Human), UniProt P36888). Description: Kinase profiling, IC50. It is filed as biochemical. As to conditions: read-out: Inhibitory activity (IC50, nM), FLT-3. As for the experimental part: [The source words this procedure for another target and reports this target under the same test.] as §1
The next experiment addresses Her-2 (Homo sapiens (Human), UniProt P04626). Nature of the experiment: Kinase profiling, IC50. It is filed as biochemical. As to conditions: read-out: Inhibitory activity (IC50, nM), Her-2. The protocol:
[The source words this procedure for another target and reports this target under the same test.] as §1

The target in the next experiment is IGF-1R (Homo sapiens (Human), UniProt P08069). Description: Kinase profiling, IC50. As to conditions: read-out: Inhibitory activity (IC50, nM), IGF-1R. It is filed as biochemical. As for the experimental part: [The source words this procedure for another target and reports this target under the same test.] as §1
Another experiment deals with PDGFR-α (Homo sapiens (Human), UniProt P16234). Nature of the experiment: Kinase profiling, IC50. As to conditions: read-out: Inhibitory activity (IC50, nM), PDGFR-α. The format is biochemical. The protocol: [The source words this procedure for another target and reports this target under the same test.] as §1
In a further experiment the target is PDGFR-β (Homo sapiens (Human), UniProt P09619). Description: Kinase profiling, IC50. As to conditions: read-out: Inhibitory activity (IC50, nM), PDGFR-β. The format is biochemical. As for the experimental part:
[The source words this procedure for another target and reports this target under the same test.] as §1

The next experiment concerns the target Src (Homo sapiens (Human), UniProt P12931). Description: Kinase profiling, IC50. It is filed as biochemical. As to conditions: read-out: Inhibitory activity (IC50, nM), Src. As for the experimental part: [The source words this procedure for another target and reports this target under the same test.] as §1
In a further experiment the target is VEGFR-2 (Homo sapiens (Human), UniProt P35968). Description: Kinase profiling, IC50. It is filed as biochemical. As to conditions: read-out: Inhibitory activity (IC50, nM), VEGFR-2. The protocol: [The source words this procedure for another target and reports this target under the same test.] as §1
In experiment [1] the test system is HepG2 cell lines (hepatoma carcinoma cell). Description: Inhibition on cell proliferation of HepG2 (SRB assay). It is filed as cell-based. As to conditions: Homo sapiens, 72 hours treatment, SRB staining, read-out: Inhibitory activities against HepG2 (IC50). The protocol:
HepG2 cell lines (ATCC #HB-8065™) were obtained from ATCC (American type culture collection; Rockville, Md.). HepG2 cell lines were incubated in a MEM medium supplemented with 10% FBS (Gibco) and 1% penicillin/streptomycin (Gibco) under 37° C., 5% CO2 and 95% air. The carcinoma cells grown on the growth medium were transferred into a 96-well plate at a density of 5,000 cells/well (HepG2), and cultured for 18 hours or more. The cells were treated with 10 μM˜0.1 nM of the test compounds, and cultured for 72 hours. Subsequently, the cells were fixed with 10% TCA (trichloroacetic acid) and stained with SRB (sulforhodamine B), and absorbance values were measured at 540 nm. Then, IC50 values, i.e., the concentration of a compound to cause 50% reduction in proliferation of cancer cells, were calculated therefrom. The growth rates of cancer cells were calculated by Equation 1 or 2. [(Ti−Tz)/(C−Tz)]×100 (in case Ti>Tz) [Equation 1] [(Ti−Tz)/Tz]×100 (in case Ti<Tz) [Equation 2]
In Equations 1 and 2, ‘Tz’ refers to a the absorbance value measured in the cells just before the application of the test compound. ‘C’ refers to the absorbance value measured in the […], and ‘Ti’ refers to the absorbance value measured in the cells treated with the test compounds.
IC50 value is the concentration of the test compound when the value of Equation 1 is 50, which indicates the concentration of the test compound needed to reduce the growth of cancer cells to 50%. On each measurement, the test compounds were compared with a reference.
(Sulforhodamine B stains cellular protein and so reports cell mass.)

Chain of C-Raf (P04049 whole entry Y340D/Y341D): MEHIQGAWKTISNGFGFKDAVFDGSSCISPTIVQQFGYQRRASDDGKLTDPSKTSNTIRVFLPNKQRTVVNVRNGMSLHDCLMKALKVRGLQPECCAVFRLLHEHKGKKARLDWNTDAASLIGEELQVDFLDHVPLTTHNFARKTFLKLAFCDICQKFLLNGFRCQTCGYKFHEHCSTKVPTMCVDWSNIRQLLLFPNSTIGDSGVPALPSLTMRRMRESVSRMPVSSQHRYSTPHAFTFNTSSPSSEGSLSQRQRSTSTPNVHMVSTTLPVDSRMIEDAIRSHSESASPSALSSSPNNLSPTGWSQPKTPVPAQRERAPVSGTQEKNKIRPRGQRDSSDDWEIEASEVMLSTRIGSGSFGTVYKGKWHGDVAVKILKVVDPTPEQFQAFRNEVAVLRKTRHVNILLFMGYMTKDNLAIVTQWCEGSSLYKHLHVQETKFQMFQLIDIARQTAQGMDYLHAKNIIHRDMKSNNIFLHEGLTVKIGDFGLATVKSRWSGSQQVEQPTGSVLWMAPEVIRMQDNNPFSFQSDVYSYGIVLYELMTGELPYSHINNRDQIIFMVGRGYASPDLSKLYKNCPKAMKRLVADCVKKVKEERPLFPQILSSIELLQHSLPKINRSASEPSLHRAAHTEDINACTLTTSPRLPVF
Chain of FGFR-2 (P21802 22-821): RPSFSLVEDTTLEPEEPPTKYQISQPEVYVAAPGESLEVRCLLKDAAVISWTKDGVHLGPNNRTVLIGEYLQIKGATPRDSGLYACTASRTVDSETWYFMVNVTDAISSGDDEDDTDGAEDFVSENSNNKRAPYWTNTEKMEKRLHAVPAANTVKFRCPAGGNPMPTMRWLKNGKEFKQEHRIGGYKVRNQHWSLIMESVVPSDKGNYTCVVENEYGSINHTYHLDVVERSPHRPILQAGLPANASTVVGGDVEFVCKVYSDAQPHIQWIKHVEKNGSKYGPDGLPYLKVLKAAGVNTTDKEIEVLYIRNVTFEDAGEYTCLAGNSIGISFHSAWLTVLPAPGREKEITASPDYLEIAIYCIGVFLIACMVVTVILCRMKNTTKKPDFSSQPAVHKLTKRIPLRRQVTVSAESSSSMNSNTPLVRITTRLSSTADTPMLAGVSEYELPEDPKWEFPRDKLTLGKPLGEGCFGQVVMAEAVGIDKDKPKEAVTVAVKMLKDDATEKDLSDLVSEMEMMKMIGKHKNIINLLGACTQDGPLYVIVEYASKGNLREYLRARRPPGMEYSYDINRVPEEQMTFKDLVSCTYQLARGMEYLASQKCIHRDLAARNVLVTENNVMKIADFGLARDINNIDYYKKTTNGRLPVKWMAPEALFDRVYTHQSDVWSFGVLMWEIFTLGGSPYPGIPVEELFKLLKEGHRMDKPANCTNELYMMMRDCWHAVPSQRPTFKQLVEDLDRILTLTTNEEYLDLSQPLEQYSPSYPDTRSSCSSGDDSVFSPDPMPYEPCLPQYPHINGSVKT
Chain of VEGFR1 (P17948 27-1338): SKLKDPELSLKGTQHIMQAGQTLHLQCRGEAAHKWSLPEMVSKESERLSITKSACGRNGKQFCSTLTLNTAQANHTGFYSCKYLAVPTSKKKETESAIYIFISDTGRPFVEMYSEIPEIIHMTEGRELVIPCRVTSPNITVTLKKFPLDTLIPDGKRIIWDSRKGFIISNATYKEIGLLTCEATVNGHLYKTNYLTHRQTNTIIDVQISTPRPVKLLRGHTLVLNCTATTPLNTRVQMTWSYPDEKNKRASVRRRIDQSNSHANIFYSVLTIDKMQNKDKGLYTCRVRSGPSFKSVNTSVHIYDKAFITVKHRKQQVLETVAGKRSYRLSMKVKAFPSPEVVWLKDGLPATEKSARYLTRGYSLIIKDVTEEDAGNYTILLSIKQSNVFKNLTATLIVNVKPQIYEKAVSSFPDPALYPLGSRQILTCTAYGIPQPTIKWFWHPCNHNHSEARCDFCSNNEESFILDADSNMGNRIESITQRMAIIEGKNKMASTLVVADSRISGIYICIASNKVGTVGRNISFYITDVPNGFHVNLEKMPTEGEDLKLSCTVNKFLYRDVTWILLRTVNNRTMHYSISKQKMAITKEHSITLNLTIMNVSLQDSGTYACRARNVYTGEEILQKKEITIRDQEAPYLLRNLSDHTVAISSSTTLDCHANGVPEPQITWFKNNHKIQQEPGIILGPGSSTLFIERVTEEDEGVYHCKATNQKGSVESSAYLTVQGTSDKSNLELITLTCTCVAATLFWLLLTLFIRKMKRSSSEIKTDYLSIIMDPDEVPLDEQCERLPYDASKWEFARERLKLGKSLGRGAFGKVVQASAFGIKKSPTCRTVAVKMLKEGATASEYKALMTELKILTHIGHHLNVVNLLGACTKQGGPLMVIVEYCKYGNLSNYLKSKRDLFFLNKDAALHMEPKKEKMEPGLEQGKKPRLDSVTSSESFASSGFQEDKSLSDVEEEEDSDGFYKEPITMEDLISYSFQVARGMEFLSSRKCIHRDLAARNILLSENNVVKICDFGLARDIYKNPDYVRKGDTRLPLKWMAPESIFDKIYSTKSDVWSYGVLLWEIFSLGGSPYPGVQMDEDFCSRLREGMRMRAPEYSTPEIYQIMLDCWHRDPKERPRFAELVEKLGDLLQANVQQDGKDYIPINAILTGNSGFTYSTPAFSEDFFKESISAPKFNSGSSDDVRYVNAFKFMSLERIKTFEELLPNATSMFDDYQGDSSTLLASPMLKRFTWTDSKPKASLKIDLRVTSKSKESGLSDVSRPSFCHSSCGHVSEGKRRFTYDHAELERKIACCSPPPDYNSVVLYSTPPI
Chain of Her-2 (P04626 23-1255): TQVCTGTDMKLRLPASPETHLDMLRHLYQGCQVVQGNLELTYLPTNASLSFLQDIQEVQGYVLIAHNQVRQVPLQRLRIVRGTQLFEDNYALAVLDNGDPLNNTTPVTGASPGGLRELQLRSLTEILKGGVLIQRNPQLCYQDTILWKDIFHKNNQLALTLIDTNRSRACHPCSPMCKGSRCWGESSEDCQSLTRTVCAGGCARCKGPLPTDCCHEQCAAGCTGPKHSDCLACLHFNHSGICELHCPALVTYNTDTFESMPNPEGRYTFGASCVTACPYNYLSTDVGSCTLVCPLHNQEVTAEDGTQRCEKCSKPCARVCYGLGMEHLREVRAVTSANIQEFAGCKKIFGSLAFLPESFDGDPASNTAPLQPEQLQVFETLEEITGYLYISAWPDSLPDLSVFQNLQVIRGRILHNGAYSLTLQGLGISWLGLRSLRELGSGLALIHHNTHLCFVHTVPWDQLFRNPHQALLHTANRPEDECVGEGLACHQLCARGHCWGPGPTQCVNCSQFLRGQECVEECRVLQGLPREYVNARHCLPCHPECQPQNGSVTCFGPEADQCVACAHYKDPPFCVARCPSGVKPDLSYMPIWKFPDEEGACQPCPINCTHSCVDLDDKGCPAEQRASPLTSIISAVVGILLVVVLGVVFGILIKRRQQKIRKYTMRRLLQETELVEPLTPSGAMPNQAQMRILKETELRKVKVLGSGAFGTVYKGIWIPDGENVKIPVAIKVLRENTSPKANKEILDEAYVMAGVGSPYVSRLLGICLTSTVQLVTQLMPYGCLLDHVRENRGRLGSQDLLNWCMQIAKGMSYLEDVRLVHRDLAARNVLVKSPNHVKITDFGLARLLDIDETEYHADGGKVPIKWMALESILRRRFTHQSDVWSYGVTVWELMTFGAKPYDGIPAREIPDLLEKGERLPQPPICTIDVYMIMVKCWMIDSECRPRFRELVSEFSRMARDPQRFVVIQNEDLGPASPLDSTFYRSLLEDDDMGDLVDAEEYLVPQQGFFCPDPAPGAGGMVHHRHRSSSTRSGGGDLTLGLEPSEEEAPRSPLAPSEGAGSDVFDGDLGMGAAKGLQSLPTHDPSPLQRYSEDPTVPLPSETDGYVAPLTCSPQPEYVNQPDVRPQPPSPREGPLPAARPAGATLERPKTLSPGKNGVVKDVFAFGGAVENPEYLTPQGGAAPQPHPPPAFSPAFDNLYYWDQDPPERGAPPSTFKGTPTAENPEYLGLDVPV
Chain of B-Raf (V600E) (P15056 whole entry V600E): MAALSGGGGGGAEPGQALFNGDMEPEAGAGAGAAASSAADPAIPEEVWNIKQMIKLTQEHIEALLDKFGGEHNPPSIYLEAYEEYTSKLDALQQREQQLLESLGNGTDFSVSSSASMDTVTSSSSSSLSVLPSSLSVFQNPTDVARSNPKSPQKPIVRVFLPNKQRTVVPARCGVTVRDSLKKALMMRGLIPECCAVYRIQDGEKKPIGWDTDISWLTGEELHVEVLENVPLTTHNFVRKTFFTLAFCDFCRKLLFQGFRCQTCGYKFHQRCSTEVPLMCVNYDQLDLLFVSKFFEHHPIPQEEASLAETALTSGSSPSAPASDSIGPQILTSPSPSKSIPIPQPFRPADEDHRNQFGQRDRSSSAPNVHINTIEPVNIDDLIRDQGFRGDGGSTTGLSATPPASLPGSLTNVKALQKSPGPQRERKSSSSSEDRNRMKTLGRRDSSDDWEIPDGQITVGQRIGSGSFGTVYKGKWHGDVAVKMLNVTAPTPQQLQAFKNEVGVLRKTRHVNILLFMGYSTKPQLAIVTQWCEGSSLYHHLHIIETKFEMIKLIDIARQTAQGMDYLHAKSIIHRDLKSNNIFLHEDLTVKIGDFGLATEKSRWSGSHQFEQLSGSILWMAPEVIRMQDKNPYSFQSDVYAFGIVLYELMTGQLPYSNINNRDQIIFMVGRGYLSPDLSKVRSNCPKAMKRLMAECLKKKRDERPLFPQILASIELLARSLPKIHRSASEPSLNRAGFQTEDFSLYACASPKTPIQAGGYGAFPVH
Chain of Aurora B (Q96GD4 whole entry): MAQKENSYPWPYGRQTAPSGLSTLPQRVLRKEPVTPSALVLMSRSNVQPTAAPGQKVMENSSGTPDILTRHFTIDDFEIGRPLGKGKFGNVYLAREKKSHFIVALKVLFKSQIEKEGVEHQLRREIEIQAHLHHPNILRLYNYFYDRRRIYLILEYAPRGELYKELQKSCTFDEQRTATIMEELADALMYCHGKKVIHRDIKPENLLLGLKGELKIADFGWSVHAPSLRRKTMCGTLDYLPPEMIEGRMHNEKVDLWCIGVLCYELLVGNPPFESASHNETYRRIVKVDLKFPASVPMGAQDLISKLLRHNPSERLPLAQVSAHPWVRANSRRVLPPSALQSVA

As for `Cc1ccc(NC(=O)c2cccc(C(F)(F)F)c2)cc1NC(=O)c1cccc2c(N)nccc12` [Example 1, 1-amino-N-(2-methyl-5-(3-(trifluoromethyl)benzamido)phenyl)isoquinoline-5-carboxamide], the IC50 at C-Raf is 0.0061 µM; on Abl, over 2500 nM; at B-Raf (V600E) it was 61 nM; on B-Raf (WT) it was 87 nM; on EGFR, over 2500 nM; at FGFR-1, over 2500 nM. For the same compound, the half-inhibitory concentration (IC50) was over 2500 nM on FGFR-2; over 2500 nM on FLT-3; over 2500 nM at Her-2; over 2500 nM at IGF-1R; 393 nM on PDGFR-α; 66 nM on PDGFR-β. The IC50 was over 2500 nM on Src, 261 nM at VEGFR-2 and 0.21 µM in [1]. For the same compound, the inhibition at 1 µM on CDK1 was 9%; on CDK2, 6%; at PLK1, -1%; at Aurora B, 23%; at FGFR4 it was 7%; at PLK2, 7%. For the same compound, the inhibition at 1 µM at PLK3 came out at 9%; on Tie-2, 20%; on VEGFR1, 9%; on c-Kit, 34%; on Aurora A, 62%.

As for `Cc1ccc(C(=O)Nc2cccc(C(F)(F)F)c2)cc1NC(=O)c1cccc2c(NC(C)(C)C)nccc12` [Example 2, 1-(t-butylamino)-N-(2-methyl-5-((3-(trifluoromethyl)phenyl)carbamoyl)phenyl)isoquinoline-5-carboxamide], the half-maximal inhibitory concentration (IC50) is 0.011 µM on C-Raf and 0.365 µM in experiment [1].

Regarding `Cc1ccc(C(=O)Nc2cccc(C(F)(F)F)c2)cc1NC(=O)c1cccc2c(N)nccc12` [Example 3, 1-amino-N-(2-methyl-5-((3-(trifluoromethyl)phenyl)carbamoyl)phenyl)isoquinoline-5-carboxamide], the half-maximal inhibitory concentration (IC50) is 0.0028 µM against C-Raf and 0.131 µM in experiment [1].

In turn, `Cc1ccc(C(=O)Nc2ccc(Cl)c(C(F)(F)F)c2)cc1NC(=O)c1cccc2c(N)nccc12` [Example 4, 1-amino-N-(5-((4-chloro-3-(trifluoromethyl)phenyl)carbamoyl)-2-methylphenyl)isoquinoline-5-carboxamide] yielded a half-maximal inhibitory concentration (IC50) against C-Raf of 0.0107 µM.

Compound `CCN1CCN(Cc2ccc(NC(=O)c3ccc(C)c(NC(=O)c4cccc5c(NC(C)(C)C)nccc45)c3)cc2C(F)(F)F)CC1` [Example 6, 1-(t-butylamino)-N-(5-((4-((4-ethylpiperazin-1-yl)methyl)-3-(trifluoromethyl)phenyl)carbamoyl)-2-methylphenyl)isoquinoline-5-carboxamide] gave a 50% inhibitory concentration (IC50) at C-Raf of 0.0064 µM.

In turn, `Cc1ccc(C(=O)Nc2ccccc2)cc1NC(=O)c1cccc2c(NC(C)(C)C)nccc12` [Example 8, 1-(t-butylamino)-N-(2-methyl-5-(phenylcarbamoyl)phenyl)isoquinoline-5-carboxamide] displayed a 50% inhibitory concentration (IC50) at C-Raf of 0.0205 µM.

Consider `Cc1cn(-c2cc(NC(=O)c3ccc(C)c(NC(=O)c4cccc5c(N)nccc45)c3)cc(C(F)(F)F)c2)cn1` [Example 11, 1-amino-N-(2-methyl-5-((3-(4-methyl-1H-imidazol-1-yl)-5-(trifluoromethyl)phenyl)carbamoyl)phenyl)isoquinoline-5-carboxamide], for which the IC50 against C-Raf was 0.0948 µM.

At C-Raf, `Cc1ccc(NC(=O)Nc2cccc(C(F)(F)F)c2)cc1NC(=O)c1cccc2c(N)nccc12` [Example 14, 1-amino-N-(2-methyl-5-(3-(3-(trifluoromethyl)phenyl)ureido)phenyl)isoquinoline-5-carboxamide] showed an IC50 of 0.108 µM.

In the case of `CCCS(=O)(=O)Nc1ccc(F)c(C(=O)c2c[nH]c3ncc(-c4ccc(Cl)cc4)cc23)c1F` [reference, Vemurafenib, reference compound], the IC50 in [1] was over 10 µM.

These data come from patent publication US9388165B2, “Isoquinoline-5-carboxamide derivative having inhibitory activity for protein kinase” (HANMI PHARM. CO., LTD., priority 2012, dated 2016).
